Values quoted from earlier work in patent US10328101B2, “Inactivation of papillomavirus” (priority 2001, dated 2019).

System: bovine papillomavirus
Details: iodine in the form of povidone-iodine; low concentrations (title of reference)

povidone-iodine
treating viruses including bovine papillomavirus: effective
